In one series the test system is Caco-2 cells. Description: Membrane permeability (Papp) across Caco-2 cell monolayer, apical to basolateral. Type of series: in vitro ADME. Particulars: Caco-2, apical to basolateral, 10 μM, 37° C. The protocol: Determination of membrane permeability in all examples described herein was accomplished by the following procedure. This procedure is also used to determine whether a given prodrug falls within the scope of those claims given herein which relate to membrane permeability.
Caco-2 cells were seeded on Costar™ 12 mm diameter, 0.4 μm pore size transwell filters, and were cultured at 37° C., 5% CO2 in a humidified tissue culture chamber.
DMEM was equilibrated as a transport buffer in 37° C. water bath an hour before experiment. The cells were then equilibrated in transport buffer for 1 hr at 37° C.
Dosing solution (10 μM) was prepared by adding a 20 μL aliquot of a 10 mM stock solution of the prodrug to 20 mL of transport buffer.
Transport across Caco-2 cell monolayer was measured at 37° C., in the apical to basolateral direction (n=3).
Transport buffer was removed from both apical and basolateral compartment of filters. Dosing solution (0.2 mL) was added to the apical compartment of the cell layers on transwell filters, and 0.8 ml fresh pre-warmed transport buffer was added to basolateral compartment. Timing was started for transport, and at 5, 20, and 60 min after transport started, sample fluid (400 μL) was collected from the basolateral compartment. Fresh transport buffer (400 μL) was added back to the basolateral compartment, and the fluid was thoroughly mixed.
The apparent permeability coefficient (Papp, cm/sec), otherwise known herein as the membrane permeability, is determined from the following relationship: Papp=J/(ACo) where J (pmol/min) is the transport rate, meaning the rate of prodrug movement through the cell layer, A (cm^2) is the filter surface area, and Co (μM) is the initial dosing concentration.
Lucifer yellow (LY) was used as a paracellular permeability reference standard to determine integrity of cell layers used in the experiments. […] Fluorescence level in basolateral fluid sampled at 5, 20, and 60 min post dose was determined using Fluostar Galaxy (BMG Labtechnologies, Durham, N.C.) at excitation/emission wavelengths of 485/520 nm. […]

The nature of series [1]: Pharmacokinetic study in rats (oral / intravenous), systemic half-life by LC-MS/MS. Particulars: Rat, SD in parenthesis; for T1/2 Prodrug: systemic half-life of intact prodrug; for T1/2 PPI: systemic half-life of the proton pump inhibitor. Also on record: key to T1/2 Prodrug: NC: plasma concentration of prodrug was too low to calculate half-life, or undetected. Type of series: in vivo, rats (Sprague-Dawley). How it is done: (§1) Blood concentrations of the compounds omeprazole, lansoprazole, pantoprazole, rabeprazole, and test compounds were quantified using an achiral liquid chromatography tandem mass spectrometry method (LC-MS/MS). Systemic pharmacokinetic parameters were determined for omeprazole or lansoprazole using non-compartmental analysis in Watson® version 6.3, available from InnaPhase Corporation, Philadelphia, Pa.

A short description of series [2]: Pharmacokinetic study in dogs (oral / intravenous), systemic half-life by LC-MS/MS. Type of series: in vivo, dogs (beagle). Also on record: key to T1/2 Prodrug: NC: plasma concentration of prodrug was too low to calculate half-life, or undetected. Particulars: for T1/2 Prodrug / T1/2 PPI / half-life: Dog, SD in parenthesis; for T1/2 Prodrug: systemic half-life of intact prodrug; for T1/2 PPI / half-life: systemic half-life of the proton pump inhibitor; for t1/2: systemic half-life of parent PPI in dogs after oral administration; for half-life: beagle, blood, po, read-out: T1/2 PPI (converted). How it is done: as §1

Compound `Cc1c(OCC(F)(F)F)ccnc1C[S+]([O-])c1nc2ccccc2n1S(=O)(=O)c1cccc(C(=O)O)c1` (stereo not shown) [Compound 7] yielded a Permeability in the series on Caco-2 cells of 1.6e-07 cm/s. Moreover, in series [1], the “T1/2 Prodrug” value is on record as “NC”. Besides, the “T1/2 PPI” value in series [1] (in h) is on record as 1.93 (1.41). Besides, in series [2], the T1/2 Prodrug was 12.4 min, the T1/2 PPI was 53.6 min and the t1/2 was 53.4 min.

The compound `COc1ccc(S(=O)(=O)n2c([S+]([O-])Cc3nccc(OCC(F)(F)F)c3C)nc3ccccc32)cc1C(=O)O` (stereo not shown) [Compound 8] showed a Permeability in the series on Caco-2 cells of 2.3e-07 cm/s. The “T1/2 Prodrug” value in series [1] was “NC”. For the same compound, in series [1] (in h), the “T1/2 PPI” value was 1.80 (1.20). In addition, in series [2], the “T1/2 Prodrug” value is reported as “NC”, the T1/2 PPI is 64.8 min and the t1/2 is 66 min.

In the series on Caco-2 cells, `Cc1c(OCC(F)(F)F)ccnc1C[S+]([O-])c1nc2ccccc2n1S(=O)(=O)c1ccc(CC(=O)O)cc1` (stereo not shown) [Compound 9] displayed a Permeability of 3.4e-07 cm/s. Besides, the “T1/2 Prodrug” value in series [1] is “NC”. In series [1] (in h), the “T1/2 PPI” value is 0.341 (0.151). Also, in series [2], the “T1/2 Prodrug” value is given as “NC”, the T1/2 PPI is 53.6 min and the t1/2 was 53.4 min.

In the case of `Cc1c(OCC(F)(F)F)ccnc1C[S+]([O-])c1nc2ccccc2n1S(=O)(=O)c1ccc(OCC(=O)O)cc1` (stereo not shown) [Compound 10], in series [2], the “T1/2 Prodrug” value is “NC” and the “T1/2 PPI” value is reported as 0.989 (0.307).

In the case of `Cc1c(OCC(F)(F)F)ccnc1C[S+]([O-])c1nc2ccccc2n1S(=O)(=O)c1ccc(OCC(C)(C)C(=O)O)cc1` (stereo not shown) [Compound 11], the “T1/2 Prodrug” value in series [1] and in series [2] was “NC” in each case. Moreover, the results for the “T1/2 PPI” value in series [1] (in h) and in series [2] were 0.933 (1.009) and 0.873 (0.288), respectively.

As for `Cc1c(OCC(F)(F)F)ccnc1C[S+]([O-])c1nc2ccccc2n1S(=O)(=O)c1ccc(CC(=O)O)c(CC(=O)O)c1` (stereo not shown) [Compound 12], in series [2], the “T1/2 Prodrug” value was “NC” and the T1/2 PPI was 55.9 min.

Take `Cc1ccc(C(=O)O)cc1S(=O)(=O)n1c([S+]([O-])Cc2nccc(OCC(F)(F)F)c2C)nc2ccccc21` (stereo not shown) [Compound 13]: the “T1/2 Prodrug” value was “NC” in series [1] and 7.32 min in series [2]. Moreover, the “T1/2 PPI” value in series [1] (in h) is 2.35 (1.22); in series [2] it was 106 min.

Regarding `COc1ccc(C(=O)O)cc1S(=O)(=O)n1c([S+]([O-])Cc2nccc(OCC(F)(F)F)c2C)nc2ccccc21` (stereo not shown) [Compound 14], in series [1] (in h), the “T1/2 PPI” value is listed as 0.536 (0.217). In addition, in series [2], the T1/2 Prodrug was 7.08 min and the T1/2 PPI was 83.4 min.

Take `Cc1c(OCC(F)(F)F)ccnc1C[S+]([O-])c1nc2ccccc2n1S(=O)(=O)c1ccc(CC(=O)O)cc1C(C)C` (stereo not shown) [Compound 15]: in series [2], the “T1/2 Prodrug” value is listed as “NC” and the T1/2 PPI is 55.4 min.

As to `Cc1c(OCC(F)(F)F)ccnc1C[S+]([O-])c1nc2ccccc2n1S(=O)(=O)c1ccc(C(=O)O)c(OCC(=O)O)c1` (stereo not shown) [Compound 16], the “T1/2 Prodrug” value in series [1] and in series [2] was “NC” in each case. Further, the “T1/2 PPI” value in series [1] (in h) is 1.86 (0.74); in series [2], 60 min.

For `Cc1cc(OCC(=O)O)cc(C(C)C)c1S(=O)(=O)n1c([S+]([O-])Cc2nccc(OCC(F)(F)F)c2C)nc2ccccc21` (stereo not shown) [Compound 17], in series [2], the T1/2 Prodrug was 89.4 min and the T1/2 PPI is 67.8 min.

For the compound `Cc1c(OCC(F)(F)F)ccnc1C[S+]([O-])c1nc2ccccc2n1S(=O)(=O)c1ccc(C(=O)O)cc1` (stereo not shown) [Compound 18], in series [2], the T1/2 Prodrug is 5.39 min and the T1/2 PPI is 54.5 min.

With `Cc1ccc(S(=O)(=O)n2c([S+]([O-])Cc3nccc(OCC(F)(F)F)c3C)nc3ccccc32)cc1CCC(=O)O` (stereo not shown) [Compound 19], in series [2], the T1/2 Prodrug is 110 min and the T1/2 PPI was 29 min.

As to `COCCCOc1ccnc(C[S+]([O-])c2nc3ccccc3n2S(=O)(=O)c2cccc(C(=O)O)c2)c1C` (stereo not shown) [Compound 30], in series [2], the T1/2 Prodrug is 67.2 min and the T1/2 PPI was 29.5 min.

Turning to `COCCCOc1ccnc(C[S+]([O-])c2nc3ccccc3n2S(=O)(=O)c2cc(C(=O)O)ccc2C)c1C` (stereo not shown) [Compound 31], in series [2], the T1/2 Prodrug was 50.6 min and the T1/2 PPI is 51.3 min.

As to `COCCCOc1ccnc(C[S+]([O-])c2nc3ccccc3n2S(=O)(=O)c2c(C)cc(OCC(=O)O)cc2C)c1C` (stereo not shown) [Compound 32], in series [2], the T1/2 Prodrug is 31.6 min and the T1/2 PPI is 91.2 min.

Consider `COCCCOc1ccnc(C[S+]([O-])c2nc3ccccc3n2S(=O)(=O)c2ccc(C(=O)O)cc2)c1C` (stereo not shown) [Compound 33], for which, in series [2], the T1/2 Prodrug is 44.8 min and the T1/2 PPI was 53.6 min.

Consider `Cc1cc(OCC(=O)O)cc(C)c1S(=O)(=O)n1c([S+]([O-])Cc2nccc(OCC(F)(F)F)c2C)nc2ccccc21` (stereo not shown) [Compound 34], for which, in series [1], the “T1/2 Prodrug” value is on record as “NC”. Besides, the “T1/2 PPI” value in series [1] (in h) is 1.11 (0.71).

As to `Cc1c(OCC(F)(F)F)ccnc1C[S+]([O-])c1nc2ccccc2n1S(=O)(=O)c1ccc(OCC(=O)O)c(OCC(=O)O)c1` (stereo not shown) [Compound 35], the “T1/2 Prodrug” value in series [1] was “NC”. For the same compound, the “T1/2 PPI” value in series [1] (in h) is recorded as 1.84 (0.87).

In the case of `Cc1c(OCC(F)(F)F)ccnc1C[S+]([O-])c1nc2ccccc2n1S(=O)(=O)c1ccc(C(=O)O)cc1` (stereo not shown) [Compound 36], the “T1/2 Prodrug” value in series [1] is given as “NC”. In addition, in series [1] (in h), the “T1/2 PPI” value is reported as 0.389 (0.085).

As for `Cc1cc(C(=O)O)ccc1S(=O)(=O)n1c([S+]([O-])Cc2nccc(OCC(F)(F)F)c2C)nc2ccccc21` (stereo not shown) [Compound 37], the “T1/2 Prodrug” value in series [1] was “NC”. The “T1/2 PPI” value in series [1] (in h) is 2.19 (0.80).

Take `COc1ccc(S(=O)(=O)n2c([S+]([O-])Cc3nccc(OCC(F)(F)F)c3C)nc3ccccc32)cc1CCC(=O)O` (stereo not shown) [Compound 38]: in series [1] (in h), the “T1/2 Prodrug” value is recorded as 1.04 (0.35) and the “T1/2 PPI” value is listed as 1.43 (0.42).

`Cc1c(OCC(F)(F)F)ccnc1C[S+]([O-])c1nc2ccccc2[nH]1` (stereo not shown) [Lansoprazole, reference compound]: in series [2], the half-life was 34.4 min and the t1/2 is 34.2 min.

With `COc1ccc2[nH]c([S+]([O-])Cc3ncc(C)c(OC)c3C)nc2c1` (stereo not shown) [Omeprazole, reference compound], in series [2], the half-life was 41.8 min and the t1/2 was 42 min.

The record behind these values is US20060241037A1, “Compositions comprising trefoil factor family peptides and/or mucoadhesives and proton pump ihhibitor prodrugs” (ALLERGAN INC., priority 2003, published 2006).
